The values below come from patent publication US12545668B2, “Cyclic amine derivative as agent for promoting advillin function, and novel cyclic amine derivative and pharmaceutical use thereof” (Toray Industries, Inc., priority 2018, dated 2026).

For test [1], the system named is sciatic nerve of a rat spinal nerve ligation model. Kind of test: Actin filament/actin monomer ratio in the sciatic nerve of rat spinal nerve ligation model. The format is in vivo. From the text:
The effect of the cyclic amine derivative (I) or a pharmacologically acceptable salt thereof on a ratio between the amount of actin filaments and the amount of actin monomers in the sciatic nerve of a rat spinal nerve ligation model was examined.
Male SD rats (manufactured by Charles River Laboratories Japan, Inc.) of 6 weeks old were used. Each rat spinal nerve ligation model was produced by resecting the spine vertebral arch by incision of the right lower back under isoflurane inhalation anesthesia, completely ligating L5 and L6 nerve roots of the spinal nerve, and then suturing the muscular layer and the skin. As a negative control (sham-operation group), the right L5 and L6 nerves were exposed, and then the muscular layer and the skin were sutured similarly without ligation. One week after the nerve ligation, the rats were used to perform the following experiment. […]
For quantitative determination of actin filaments and actin monomers, G-actin/F-actin in vivo assay kit (manufactured by Cytoskeleton Inc.) was used. […] The amount of actin in each of the actin monomer sample and the actin filament sample was measured by Western blotting. […] Luminescence intensity of a band corresponding to actin was quantitatively determined using Image Lab software (manufactured by Bio-Rad). […]

Test [2] can be described thus: Specific binding of 3H-labeled compound to membrane fraction prepared from rat dorsal root ganglion. As to conditions: 3H-labeled compound of Example 7, 37° C., 1 hour; unlabeled compound for non-specific binding; FIG. 2. On the procedure:
(§1) A binding property of a ^3H-labeled cyclic amine derivative (I) to each of membrane fractions prepared from various tissues of a rat was evaluated, and thus, a tissue containing a molecular target of the cyclic amine derivative (I) was clarified.
(§2) As the cyclic amine derivative (I), the compound of Example 7 was used.
(§3) Male SD rats (manufactured by Charles River Laboratories Japan, Inc.) of 7 weeks old were used. Rats were anesthetized with isoflurane, and euthanized by exsanguination from the abdominal aorta using a syringe having an inner wall treated with a heparin sodium injection (manufactured by AY Pharmaceuticals Co., Ltd.). […]
(§4) A homogenate sample of each tissue thus collected was prepared, using a homogenizer, by adding a homogenize buffer (sucrose (1 M), Tris-HCl (0.5 M), and 1× protease inhibitor cocktail (manufactured by Sigma Aldrich), pH 7.6) to the collected tissue. […] The resultant supernatant was ultracentrifuged at 100,000×g at 4° C. for 60 minutes, and the thus obtained precipitate was suspended in Krebs-Ringer bicarbonate buffer (manufactured by Sigma Aldrich) to quantitatively determine the amount of protein using a BCA protein assay kit (manufactured by Thermo Fisher Scientific K.K.). […]

A short description of test [3]: Specific binding of 3H-labeled compound to membrane fractions prepared from the other rat tissues. As to conditions: 3H-labeled compound of Example 7, 37° C., 1 hour; relative to dorsal root ganglion. On the procedure: as §1, §2, §3, §4
The nature of test [4]: Specific binding of 3H-labeled compound to membrane fraction prepared from rat sciatic nerve. As to conditions: 3H-labeled compound of Example 7, 37° C., 1 hour; relative to dorsal root ganglion. The method, then:
as §1, §2, §3, §4

The structures appear in SMILES notation.

As for `CN(C)C1CCN(C(=O)C[C@H](O)c2nccn2C)CC1` [Example 7, (S)-1-(4-(dimethylamino)piperidin-1-yl)-3-hydroxy-3-(1-methyl-1H-imidazol-2-yl)propan-1-one], in test [1] (oral 60 mg/kg once a day for 2 days, sciatic nerve, p<0.025 Williams), the “actin filament/actin monomer ratio compared to the distilled water administration group” value is “significantly reduced”. In addition, the “actin filament/actin monomer ratio” value in test [1] (oral 6, 20 and 60 mg/kg once a day for 2 days, sciatic nerve 3 hours after last administration, FIG. 3b) is on record as “reduced as the dose of the compound of Example 7 was increased”. Besides, the “specific binding to the membrane fraction prepared from the dorsal root ganglion” value in test [2] is “significant”. For the same molecule, the “specific bindings to the membrane fractions prepared from the other tissues including the brain, as % of the specific binding to the dorsal root ganglion membrane fraction” value in test [3] is on record as “less than 1%”. Besides, the “specific binding to the membrane fraction prepared from the sciatic nerve, as % of the specific binding to the dorsal root ganglion membrane fraction” value in test [4] was found to be 42%.
